Like-named read-outs stand apart in the source and are kept apart here.
What was measured:
physchem = conditions: organic solvent or mixture
Source text: In this example, studies were initiated to determine the solubility of cyclophosphamide monohydrate in pharmaceutically acceptable solvents such as propylene glycol, polyethylene glycol and ethanol.

[1] = 500 mg/ml; for colour of solution upon storage: all temperature conditions
Procedure: Since these solvents provided more than adequate solubility, the stability of the solutions containing cyclophosphamide at a concentration of 500 mg/ml was examined.

## O.O=P1(N(CCCl)CCCl)NCCCO1 (stereo not shown) [cyclophosphamide monohydrate, 2-[bis(2-chloroethyl)amino]-tetrahydro-2H-1,3,2-oxazaphosphorine-2-oxide monohydrate]
physchem; ethanol
  solubility: > 500 mg/mL
physchem; polyethylene glycol
  solubility: > 500 mg/mL
physchem; propylene glycol
  solubility: > 500 mg/mL
[1]; PEG 400 as sole solvent
  degradation: Significant degradation
  colour of solution upon storage: turning visibly yellow in color
[1]; PG as sole solvent
  degradation: Significant degradation
  colour of solution upon storage: turning visibly yellow in color

— patent US20150320774A1, “FORMULATIONS OF CYCLOPHOSPHAMIDE LIQUID CONCENTRATE” (AuroMedics Pharma LLC, priority 2014, published 2015)
